Structures are written as SMILES. pIC50: −log10 of the molar value.

The target in this assay is T1, human recombinant HDAC6 (Homo sapiens, UniProt Q9UBN7).
T1 construct: purchased Calbiochem 382180
T1 sequence (Q9UBN7 1-1215): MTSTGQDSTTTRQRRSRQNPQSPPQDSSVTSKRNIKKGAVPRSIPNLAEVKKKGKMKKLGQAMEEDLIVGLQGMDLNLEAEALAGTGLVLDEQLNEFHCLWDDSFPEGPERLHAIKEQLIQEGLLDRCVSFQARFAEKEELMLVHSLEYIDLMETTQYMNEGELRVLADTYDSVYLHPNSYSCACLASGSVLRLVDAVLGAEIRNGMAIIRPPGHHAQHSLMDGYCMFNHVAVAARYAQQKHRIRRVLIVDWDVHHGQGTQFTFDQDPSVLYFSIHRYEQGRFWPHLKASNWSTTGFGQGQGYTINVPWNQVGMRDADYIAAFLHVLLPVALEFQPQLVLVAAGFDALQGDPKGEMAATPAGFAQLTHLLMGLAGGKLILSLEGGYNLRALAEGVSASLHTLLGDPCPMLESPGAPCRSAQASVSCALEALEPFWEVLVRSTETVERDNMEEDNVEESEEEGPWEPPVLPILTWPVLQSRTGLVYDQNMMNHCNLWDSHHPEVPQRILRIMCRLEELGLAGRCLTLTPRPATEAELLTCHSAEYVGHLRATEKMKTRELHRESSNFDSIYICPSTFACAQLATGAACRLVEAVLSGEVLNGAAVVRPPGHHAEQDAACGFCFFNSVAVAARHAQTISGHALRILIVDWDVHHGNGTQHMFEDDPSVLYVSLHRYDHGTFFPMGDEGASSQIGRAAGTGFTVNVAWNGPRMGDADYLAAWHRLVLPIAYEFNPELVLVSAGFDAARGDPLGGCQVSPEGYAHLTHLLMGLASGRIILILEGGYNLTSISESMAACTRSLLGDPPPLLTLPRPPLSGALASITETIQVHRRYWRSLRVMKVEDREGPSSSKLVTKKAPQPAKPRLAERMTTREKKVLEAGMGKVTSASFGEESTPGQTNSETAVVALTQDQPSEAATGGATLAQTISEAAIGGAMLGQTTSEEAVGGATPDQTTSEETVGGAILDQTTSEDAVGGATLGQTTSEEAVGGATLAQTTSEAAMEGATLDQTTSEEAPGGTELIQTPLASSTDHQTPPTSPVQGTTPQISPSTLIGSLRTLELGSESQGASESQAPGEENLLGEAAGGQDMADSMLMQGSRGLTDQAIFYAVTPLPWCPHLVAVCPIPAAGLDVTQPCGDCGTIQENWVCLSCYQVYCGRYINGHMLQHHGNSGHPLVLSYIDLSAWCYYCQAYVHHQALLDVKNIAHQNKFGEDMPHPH
The assay is described as follows: HDAC enzyme activity inhibition assay (HDAC6, fluorimetric kit). The assay is classed as biochemical. The settings on record: for HDAC6 selectivity (fold): HDAC6 versus HDAC1; for pIC50: same protocol as the HDAC1 test. The procedure: In order to examine the HDAC6 selectivity of the compounds of formula I of the present invention by HDAC1 and HDAC6 enzymatic activity inhibition assays, an experiment was performed using a conventional substance as a control. HDAC enzyme activity was measured using a HDAC Fluorimetric Drug Discovery Kit (BML-AK511, 516) from Enzo Life Science. For the HDAC1 enzyme activity test, human recombinant HDAC1 (BML-SE456) was used as an enzyme source, and Fluor de Lys®-“SIRT1 (BNL-KI177) was used as a substrate. A 5-fold dilution of the compound was seeded into a 96-well plate, and then 0.3 μg of the enzyme and 10 μM of the substrate were added to each well of the plate and allowed to react at 30° C. for 60 minutes. Then, Fluor de Lys®-Developer II (BML-KI176) was added thereto and allowed to react for 30 minutes, after which the fluorescence value (Ex 360, Em 460) was measured using a multi-plate reader (Flexstation 3, Molecular Device). The HDAC6 enzyme was tested using human recombinant HDAC6 (382180) from Calbiochem, according to the same protocol as the HDAC1 enzyme activity test method. Based on the resulting values, each IC50 value was calculated using GraphPad Prism4.0 program.

Take `CCC(=O)N1CCC(C(=O)N(Cc2ccc(-c3nnc(C(F)F)o3)cc2F)c2ccccc2)CC1` [Compound 11212, N-(4-(5-(difluoromethyl)-1,3,4-oxadiazol-2-yl)-2-fluorobenzyl)-N-phenyl-1-propionylpiperidine-4-carboxamide]: the “HDAC6 selectivity (fold)” value was 1124 fold and the pIC50 was 7.05.
Taken in the same sequence, the figures for `CC(C)C(=O)N1CCC(C(=O)N(Cc2ccc(-c3nnc(C(F)F)o3)cc2F)c2ccccc2)CC1` [Compound 11213, N-(4-(5-(difluoromethyl)-1,3,4-oxadiazol-2-yl)-2-fluorobenzyl)-1-isobutyryl-N-phenylpiperidine-4-carboxamide] were 781 fold and 6.89.
For `O=C(C1CCN(C(=O)C(F)(F)F)CC1)N(Cc1ccc(-c2nnc(C(F)F)o2)cc1F)c1ccccc1` [Compound 11214, N-(4-(5-(difluoromethyl)-1,3,4-oxadiazol-2-yl)-2-fluorobenzyl)-N-phenyl-1-(2,2,2-trifluoroacetyl)piperidine-4-carboxamide], the “HDAC6 selectivity (fold)” value is given as 714 fold and the pIC50 was 6.85.
For `CS(=O)(=O)N1CCC(C(=O)N(Cc2ccc(-c3nnc(C(F)F)o3)cc2F)c2ccccc2)CC1` [Compound 11215, N-(4-(5-(difluoromethyl)-1,3,4-oxadiazol-2-yl)-2-fluorobenzyl)-1-(methylsulfonyl)-N-phenylpiperidine-4-carboxamide], in that order: 1667 fold and 7.22.
For `CN1CC(C(=O)N(Cc2ccc(-c3nnc(C(F)(F)F)o3)cc2F)c2ccccc2)C1` [Compound 11232, N-(2-fluoro-4-(5-(trifluoromethyl)-1,3,4-oxadiazol-2-yl)benzyl)-1-methyl-N-phenylazetidine-3-carboxamide], in that order: 1923 fold and 7.28.
Taken in the same sequence, the figures for `CCN1CC(C(=O)N(Cc2ccc(-c3nnc(C(F)(F)F)o3)cc2F)c2ccccc2)C1` [Compound 11233, 1-ethyl-N-(2-fluoro-4-(5-(trifluoromethyl)-1,3,4-oxadiazol-2-yl)benzyl)-N-phenylazetidine-3-carboxamide] were 2703 fold and 7.43.
Turning to `CC(=O)N1CC(C(=O)N(Cc2ccc(-c3nnc(C(F)(F)F)o3)cc2F)c2ccccc2)C1` [Compound 11234, 1-acetyl-N-(2-fluoro-4-(5-(trifluoromethyl)-1,3,4-oxadiazol-2-yl)benzyl)-N-phenylazetidine-3-carboxamide], the “HDAC6 selectivity (fold)” value worked out at 1754 fold and the pIC50 was 7.24.
For `CCC(=O)N1CC(C(=O)N(Cc2ccc(-c3nnc(C(F)(F)F)o3)cc2F)c2ccccc2)C1` [Compound 11235, N-(2-fluoro-4-(5-(trifluoromethyl)-1,3,4-oxadiazol-2-yl)benzyl)-N-phenyl-1-propionylazetidine-3-carboxamide], in that order: 1538 fold and 7.19.
Taken in the same sequence, the figures for `CC(C)C(=O)N1CC(C(=O)N(Cc2ccc(-c3nnc(C(F)(F)F)o3)cc2F)c2ccccc2)C1` [Compound 11236, N-(2-fluoro-4-(5-(trifluoromethyl)-1,3,4-oxadiazol-2-yl)benzyl)-1-isobutyryl-N-phenylazetidine-3-carboxamide] were 1370 fold and 7.14.
As for `CS(=O)(=O)N1CC(C(=O)N(Cc2ccc(-c3nnc(C(F)(F)F)o3)cc2F)c2ccccc2)C1` [Compound 11237, N-(2-fluoro-4-(5-(trifluoromethyl)-1,3,4-oxadiazol-2-yl)benzyl)-1-(methanesulfonyl)-N-phenylazetidine-3-carboxamide], the “HDAC6 selectivity (fold)” value is 2381 fold and the pIC50 was 7.38.
Taken in the same sequence, the figures for `CN1CC(C(=O)N(Cc2ccc(-c3nnc(C(F)F)o3)cc2F)c2ccccc2)C1` [Compound 11238, N-(4-(5-(difluoromethyl)-1,3,4-oxadiazol-2-yl)-2-fluorobenzyl)-1-methyl-N-phenylazetidine-3-carboxamide] were 2222 fold and 7.35.
For `CCN1CC(C(=O)N(Cc2ccc(-c3nnc(C(F)F)o3)cc2F)c2ccccc2)C1` [Compound 11239, N-(4-(5-(difluoromethyl)-1,3,4-oxadiazol-2-yl)-2-fluorobenzyl)-1-ethyl-N-phenylazetidine-3-carboxamide], in that order: 3846 fold and 7.59.
Taken in the same sequence, the figures for `CC(C)N1CC(C(=O)N(Cc2ccc(-c3nnc(C(F)F)o3)cc2F)c2ccccc2)C1` [Compound 11240, N-(4-(5-(difluoromethyl)-1,3,4-oxadiazol-2-yl)-2-fluorobenzyl)-1-isopropyl-N-phenylazetidine-3-carboxamide] were 2439 fold and 7.39.
With `CC(=O)N1CC(C(=O)N(Cc2ccc(-c3nnc(C(F)F)o3)cc2F)c2ccccc2)C1` [Compound 11241, 1-acetyl-N-(4-(5-(difluoromethyl)-1,3,4-oxadiazol-2-yl)-2-fluorobenzyl)-N-phenylazetidine-3-carboxamide], the “HDAC6 selectivity (fold)” value came to 2857 fold and the pIC50 was 7.46.
Taken in the same sequence, the figures for `CCC(=O)N1CC(C(=O)N(Cc2ccc(-c3nnc(C(F)F)o3)cc2F)c2ccccc2)C1` [Compound 11242, N-(4-(5-(difluoromethyl)-1,3,4-oxadiazol-2-yl)-2-fluorobenzyl)-N-phenyl-1-propionylazetidine-3-carboxamide] were 2564 fold and 7.41.
Consider `CC(C)C(=O)N1CC(C(=O)N(Cc2ccc(-c3nnc(C(F)F)o3)cc2F)c2ccccc2)C1` [Compound 11243, N-(4-(5-(difluoromethyl)-1,3,4-oxadiazol-2-yl)-2-fluorobenzyl)-1-isobutyryl-N-phenylazetidine-3-carboxamide], for which the “HDAC6 selectivity (fold)” value was found to be 3125 fold and the pIC50 was 7.49.
Taken in the same sequence, the figures for `O=C(C1CN(C(=O)C(F)(F)F)C1)N(Cc1ccc(-c2nnc(C(F)F)o2)cc1F)c1ccccc1` [Compound 11244, N-(4-(5-(difluoromethyl)-1,3,4-oxadiazol-2-yl)-2-fluorobenzyl)-N-phenyl-1-(2,2,2-trifluoroacetyl)azetidine-3-carboxamide] were 1587 fold and 7.20.
For `CS(=O)(=O)N1CC(C(=O)N(Cc2ccc(-c3nnc(C(F)F)o3)cc2F)c2ccccc2)C1` [Compound 11245, N-(4-(5-(difluoromethyl)-1,3,4-oxadiazol-2-yl)-2-fluorobenzyl)-1-(methylsulfonyl)-N-phenylazetidine-3-carboxamide], in that order: 2128 fold and 7.33.
For `CC(=O)N(Cc1ccc(-c2nnc(C(F)(F)F)o2)cc1F)c1ccccc1` [Compound 11246, N-(2-fluoro-4-(5-(trifluoromethyl)-1,3,4-oxadiazol-2-yl)benzyl)-N-phenylacetamide], in that order: 758 fold and 6.88.
For the compound `CC(=O)N(Cc1ccc(-c2nnc(C(F)F)o2)cc1F)c1ccccc1` [Compound 11247, N-(4-(5-(difluoromethyl)-1,3,4-oxadiazol-2-yl)-2-fluorobenzyl)-N-phenylacetamide], the “HDAC6 selectivity (fold)” value came out at 1887 fold and the pIC50 is 7.28.

The term pIC50 denotes the IC50 on a negative log10 scale, so that one unit is a factor of ten.

Source of the values: patent US10584117B2, “1,3,4-oxadiazole amide derivative compound as histone deacetylase 6 inhibitor, and pharmaceutical composition containing same” (Chong Kun Dang Pharmaceutical Corp., priority 2015, dated 2020).
